{"source": "paper PMC2574930", "about": "(Cancer, 2008)", "key": {"[1]": {"tested_on": "p21^WAF1/CIP1 transcript in NCI-H720 cells", "assay": "Real-time PCR p21WAF1/CIP1 transcripts, NCI-H720", "type": "cell-based, human"}, "[2]": {"tested_on": "ERK1/2 phosphorylation in NCI-H727 cells", "assay": "ELISA", "type": "cell-based, human", "conditions": "NCI-H727, 30 mins"}, "[3]": {"tested_on": "Ki67 transcript in NCI-H720 cells", "assay": "Real-time PCR Ki67 transcripts, NCI-H720", "type": "cell-based, human"}, "sst5": {"tested_on": "sst5", "conditions": "read-out: sst5 receptor subtype specificity (IC50); human receptor; cited from earlier work"}, "sst4": {"tested_on": "sst4", "conditions": "read-out: sst4 receptor subtype specificity (IC50); human receptor; cited from earlier work"}, "NCI-H727 cells": {"tested_on": "NCI-H727 cells", "assay": "MTT proliferation assay, NCI-H727", "type": "cell-based, human", "conditions": "72 hours incubation, drug applied every 24 hrs, 10^−10 to 10^−6"}, "sst1": {"tested_on": "sst1", "conditions": "read-out: sst1 receptor subtype specificity (IC50); human receptor; cited from earlier work"}, "[4]": {"tested_on": "p21^WAF1/CIP1 transcript in NCI-H727 cells", "assay": "Real-time PCR p21WAF1/CIP1 transcripts, NCI-H727", "type": "cell-based, human", "conditions": "NCI-H727, 24 hrs"}, "sst2": {"tested_on": "sst2", "conditions": "read-out: sst2 receptor subtype specificity (IC50); human receptor; cited from earlier work"}, "sst3": {"tested_on": "sst3", "conditions": "read-out: sst3 receptor subtype specificity (IC50); human receptor; cited from earlier work"}, "[5]": {"tested_on": "p21^WAF1/CIP1 transcript in KRJ-I cells", "assay": "Real-time PCR p21WAF1/CIP1 transcripts, KRJ-I", "type": "cell-based, human", "conditions": "IC50 concentration, 24 hrs, p<0.01 vs. control, Mean±SEM, n=4"}, "[6]": {"tested_on": "ERK1/2 phosphorylation in KRJ-I cells", "assay": "ELISA", "type": "cell-based, human"}, "[7]": {"tested_on": "Ki67 transcript in KRJ-I cells", "assay": "Real-time PCR Ki67 transcripts, KRJ-I", "type": "cell-based, human"}}}
{"compound": "CC(C)[C@@H]1NC(=O)[C@H](CCCCN)NC(=O)[C@@H](Cc2c[nH]c3ccccc23)NC(=O)[C@H](Cc2ccc(O)cc2)NC(=O)[C@@H](NC(=O)[C@H](N)Cc2ccc3ccccc3c2)CSSC[C@@H](C(=O)N[C@H](C(N)=O)[C@@H](C)O)NC1=O", "note": "[Lanreotide]", "values": [{"measurement": "p21^WAF1/CIP1 transcript levels increased, vs. control", "setting": "[1]; NCI-H720, IC50 concentration, 24 hr, p<0.01 vs. control, Mean±SEM, n=4", "value": "140±27", "unit": "%"}, {"measurement": "ERK phosphorylation", "setting": "[2]", "value": "no effect"}, {"measurement": "Ki67 transcript levels decreased, vs. unstimulated cells", "setting": "[3]; NCI-H720, IC50 concentration, 24 hr, p<0.01, Mean±SEM, n=4", "value": "45±7", "unit": "%"}, {"measurement": "IC50", "setting": "sst5", "value": 12.7, "unit": "nM"}, {"measurement": "IC50", "setting": "sst4", "value": "> 1000", "unit": "nM"}, {"measurement": "Effect on NCI-H727 proliferation", "setting": "NCI-H727 cells", "value": "No effect"}, {"measurement": "IC50", "setting": "sst1", "value": "> 1000", "unit": "nM"}, {"measurement": "p21^WAF1/CIP1 transcripts", "setting": "[4]", "value": "not significantly up-regulated"}, {"measurement": "IC50", "setting": "sst2", "value": 0.75, "unit": "nM"}, {"measurement": "IC50", "setting": "sst3", "value": 98, "unit": "nM"}, {"measurement": "p21^WAF1/CIP1 transcripts elevated, vs. control", "setting": "[5]", "value": "175±21", "unit": "%"}, {"measurement": "Activation of ERK1/2 signaling, vs. control", "setting": "[6]; IC50 concentration, 30 mins, p=0.05 vs. control, Mean±SEM, n=4", "value": "25±8", "unit": "%"}, {"measurement": "Ki67 transcript down regulated, vs. control", "setting": "[7]; IC50 concentration, 24 hrs, p<0.01 vs. control, Mean±SEM, n=4", "value": "73±12", "unit": "%"}]}
{"compound": "COc1cccc(-c2cc(=O)c3ccccc3o2)c1N", "note": "[PD98059]", "values": [{"measurement": "Reversal of lanreotide-induced p21^WAF1/CIP1 increase by PD98059", "setting": "[1]; NCI-H720, p<0.05 vs. lanreotide alone", "value": "reversible"}, {"measurement": "Ki67 transcript decrease by lanreotide when inhibited by PD98059", "setting": "[3]; NCI-H720, lanreotide 24 hr with PD98059, p<0.05 vs. lanreotide alone", "value": "6±2", "unit": "%"}, {"measurement": "Inhibition of lanreotide-activated ERK1/2 signaling by PD98059", "setting": "[6]; PD98059 pre-incubated 10 min prior to lanreotide", "value": "could be inhibited"}, {"measurement": "Inhibition of lanreotide Ki67 down regulation by PD98059", "setting": "[7]; p<0.05 vs. lanreotide alone", "value": "inhibited"}]}
{"compound": "Somatostatin-14", "values": [{"measurement": "IC50", "setting": "sst5", "value": 1.41, "unit": "nM"}, {"measurement": "IC50", "setting": "sst4", "value": 1.77, "unit": "nM"}, {"measurement": "IC50", "setting": "sst1", "value": 1.95, "unit": "nM"}, {"measurement": "IC50", "setting": "sst2", "value": 0.25, "unit": "nM"}, {"measurement": "IC50", "setting": "sst3", "value": 1.2, "unit": "nM"}]}
{"compound": "Somatostatin-28", "values": [{"measurement": "IC50", "setting": "sst5", "value": 0.4, "unit": "nM"}, {"measurement": "IC50", "setting": "sst4", "value": 5.4, "unit": "nM"}, {"measurement": "IC50", "setting": "sst1", "value": 1.86, "unit": "nM"}, {"measurement": "IC50", "setting": "sst2", "value": 0.31, "unit": "nM"}, {"measurement": "IC50", "setting": "sst3", "value": 1.3, "unit": "nM"}]}
